{
  "source": "patent US20050209104A1",
  "about": "“Dinoflagellate karlotoxins, methods of isolation and uses thereof” (priority 2002, published 2005)",
  "key": {"[1]": {"test_system": "zebrafish (Danio rerio-60 days old)", "test": "Effect of KmTx 2 on fish (mortality and histology)", "format": "in vivo", "protocol": "Zebrafish (Danio rerio-60 days old) were exposed to 0.1, 0.5, 1, or 2 μg/ml KmTx 2 in 50 ml of aerated reconstituted fresh water (soft) [ASTM, 1992 #125]. Toxin dilutions were made in MeOH (200 μl max. per treatment) and controls were exposed to 200 μl MeOH only. Three fish were exposed per replicate, three replicates per treatment. […] Upon death, fish were preserved in neutral buffered formalin and prepared for histological examination as described in Noga 2000."}, "[2]": {"test_system": "Aspergillus niger (ATCC 1004)", "test": "Anti-fungal broth microdilution assay (filamentous fungi)", "format": "cell-based", "protocol": "The following fungal strains were purchased from the American Type Culture Collection (Manassas, Va.), Aspergillus niger (ATCC 1004) as a representative filamentous fungi, and Candida albicans (ATCC 14053) as a representative yeast. Assays were performed according to the following National Committee for Clinical Laboratory Standards documents; M27-A2 Reference Method for Broth Dilution Antifungal Susceptibility Testing of Yeasts; Approved Standard—Second Edition([NCCLS, 2002), and M38-A Reference Method for Broth Dilution Antifungal Susceptibility Testing of Filamentous Fungi; Approved Standard (NCCLS, 2002). Procedures for the broth microdilution modification were followed for both species with the following exceptions; A. niger stocks were maintained on Potato Dextrose Agar at 25° C., while C. albicans was maintained on Yeast Malt Agar at 28° C., both according to ATCC recommendations. Amphotericin B was used as a positive control. Microdilution assays were performed in HyQ-RPMI-1640 media (HyClone, Logan, Utah.), with 2.05 mM L-glutamine, without sodium bicarbonate, pH 7.2 using dilutions of 1 mg/ml DMSO stocks of KmTx 2 and amphotericin B.\nThe following concentrations were tested for both KmTx2 and amphotericin B: 0.0625, 0.125, 0.25, 0.5, 1, 2, 4, 8, and 16 μg/ml. A maximum of 1.6% DMSO was added to any given well. Plates were incubated at 25 and 28° C., respectively, for A. niger and C. albicans. […] Amphotericin B and all culture media were purchased from Sigma-Aldrich (St. Louis, Mo.)."}, "Oxyrrhis marina": {"test_system": "Oxyrrhis marina", "test": "Effect of KmTx 2 on a potential grazer", "format": "cell-based", "protocol": "Oxyrrhis marina (1.7×10^4 cells/mil) and K. micrum (CCMP 2282) (3.5×10^4 cells/ml) were exposed, in triplicate, to 0, 0.1, 0.5, and 1 μg/ml KmTx 2 in six well non-tissue culture treated polystyrene plates (Becton Dickinson Labware, Lincoln Park N.J.). The O. marina culture was obtained through single cell isolation from a Chesapeake Bay water sample and was maintained in 15 psu artificial sea water (Instant Ocean Brand) using Rhodomonas sp. (CCMP 767) as a food source. O. marina was starved for 24 hours prior to exposures to reduce the number of food organisms. K. micrum (CCMP 2282) was maintained in 12 psu artificial sea water (Instant Ocean Brand) with f/2 nutrient mixture plus 1% soil extract as described in Deeds et al. (2002). Cell densities were measured at 1 and 24 hours using a Coulter Multisizer II particle counter by enumerating the 7-20 μm and the […] size fractions, respectively, for K. micrum and O. marina using a Coulter Accucomp software package (Coulter Electronics Limited, Miami Fla.). Significant differences (p<0.05) among mean cell numbers for different treatments were tested for using one-way analysis of variance with Scheffe's post hoc test using SPSS Base 10.0 statistical software (SPSS Inc., Chicago, Ill.).\nHemolytic activity remaining in solution was measured at 1 hour by mixing 100 μl of each treatment with an equal volume of diluted rainbow trout RBC suspension as described above in Example 3."}, "[3]": {"test_system": "rat embryonic fibroblast (REF 52) cells", "test": "Ion permeation measurement, Ca^2+ flux with fura-2 (fibroblasts)", "format": "cell-based", "protocol": "The following cell types were tested for toxicity due to KmTx 2; rat embryonic fibroblast, rat intestional epithelial, and isolated rabbit primary sensory neurons. Cells were cultured on No. 1 glass coverslips and loaded with fluorescent indicator (fura-2) and were examined on an inverted epifluorescence microscope (model Diaphot; 40×CF Fluor objective, N.A. 1.30; Nikon Corp.) coupled to a spectrofluorometer (model CM1T10I, SPEX Industries) operating in the microfluorometry mode. Cells were bathed in 4 ml of Dulbecco's modified Eagle's medium (DMEM) buffered with HEPES (pH 7.4). KmTx 2 (stock solution in DMSO) was directly bath-applied with gentle convective mixing. Fura-2 was alternately excited at 340 and 380 nm. Fluorescence emission was passed through a 510-nm bandpass filter before photometric quantitation. DATAMAX software (SPEX Industries) was used for data acquisition and instrument control. Origin software (OriginLab Corp.) was used for data reduction and analysis"}, "[4]": {"test_system": "rainbow trout erythrocytes", "test": "Osmotic protection assay", "format": "cell-based", "conditions": "30 mM osmolyte, even at 1 μg/ml KmTx 2", "protocol": "The following osmolytes (all purchased from Sigma-Aldrich Co., St Louis, Mo.) were prepared as 30 mM solutions using the Tris buFFer +CaCl2: sucrose (MW 342.3), polyethylene glycol (MW 400), polyethylene glycol (MW 600), maltohexaose (MW 990.0), polyethylene glycol (MW 8,000), dextran (MW 10,000). Osmolarity of each solution was measured using a Vapro 5520 vapor pressure osmometer (Wescor Inc., Logan Utah). […] The osmolarities of PEG 8,000 and 10,000 MW dextran were approximately double this amount (ca. 640 mOsm).\nAssays were performed by preparing trout erythrocyte suspensions and toxin dilutions (0, 0.25 0.5, and 1 μg/ml) in the appropriate osmolyte solution and performing the hemolysis assay as described in supplemental materials."}},
  "note": "“Also recorded” adds a separate entry of the source.",
  "data": [
    {"compound": "C=C(CC[C@H](O)[C@H]1O[C@H](C[C@@H](O)[C@H](O)[C@H](C)CCC[C@@H](O)[C@H](O)[C@H](O)[C@@H](C)CC[C@@H](O)[C@H](O)[C@H](C)C[C@@H](O)CCC[C@@H](O)CCC[C@@H](O)/C=C/C[C@@H](O)CO)[C@@H](O)[C@@H](O)[C@@H]1O)[C@H](O)[C@H](O)[C@@H]1C[C@H](O)[C@H](O)[C@@H]([C@H](O)[C@@H](O)/C=C/CCCCCCCC/C=C/C=C/Cl)O1", "note": "[KmTx 2]", "values": [
      {"measurement": "survival", "setting": "[1]; 0.1 μg/ml, 6 hr exposure", "result": "survived the full 6 hr exposure"},
      {"measurement": "histological examination of gills", "setting": "[1]; 0.1 μg/ml, 6 hrs", "result": "loss of secondary structure of gill lamellae and sloughing of gill epithelial tissue"},
      {"measurement": "histological examination of gills", "setting": "[1]; 0.5 μg/ml", "result": "Severe necrosis and degeneration of gill tissue"},
      {"measurement": "time to death, all fish", "setting": "[1]; 0.5 μg/ml", "result": "< 1", "unit": "h"},
      {"measurement": "anti-fungal activity, fold lower than for amphotericin B", "setting": "[2]; depending on species tested (A. niger, C. albicans)", "result": "10-100 fold"},
      {"measurement": "Minimal inhibitory concentration (MIC)", "setting": "[2]; lowest dose with no growth after 96 hours, 25° C.", "result": 8, "unit": "µg/mL"},
      {"measurement": "reduction of O. marina cell densities", "setting": "Oxyrrhis marina; 1 μg/ml, after 24 hours", "result": "> 90", "unit": "%"},
      {"measurement": "cell lysis of O. marina", "setting": "Oxyrrhis marina; 0.5 and 1 μg/ml treatments at 1 hour", "result": "significant (P<0.05) cell lysis"},
      {"measurement": "hemolytic activity remaining in solution", "setting": "Oxyrrhis marina; after 1 hour, all KmTx 2 concentrations, O. marina compared to K. micrum exposed cultures", "result": "reduced"},
      {"measurement": "intracellular free Ca^2+ concentration ([Ca^2+]i)", "setting": "[3]; 0.25 μg/ml", "result": "marked increase in intracellular free Ca^2+ concentration; also recorded: rapid increase in cytosolic Ca^2+ levels followed by slight recovery"},
      {"measurement": "intracellular free Ca^2+ concentration ([Ca^2+]i)", "setting": "[3]; 1 μg/ml", "result": "sharp and irreversible rise in [Ca^2+]i; also recorded: rapid rise in cytosoloc Ca^2+ levels with no recovery"},
      {"measurement": "molecular weight of inert osmolyte giving complete prevention of lysis", "setting": "[4]", "result": "> 8,000 Da"}
    ]}
  ]
}
